Measured values: patent US5994334A, “Androgen synthesis inhibitors” (priority 1997, dated 1999)
Where two headings read alike, the source gives them in different places.

Columns and labels:
[1] = target: T1, Human Testicular 17α-Hydroxylase (Homo sapiens, UniProt P05093); test: Inhibition of human testicular 17α-hydroxylase (pregnenolone substrate, testicular microsomes); type: biochemical
T1 construct: incubating human testicular microsomes; from tissue; host or cells: human testis, microsomes
T1 sequence (P05093 1-508): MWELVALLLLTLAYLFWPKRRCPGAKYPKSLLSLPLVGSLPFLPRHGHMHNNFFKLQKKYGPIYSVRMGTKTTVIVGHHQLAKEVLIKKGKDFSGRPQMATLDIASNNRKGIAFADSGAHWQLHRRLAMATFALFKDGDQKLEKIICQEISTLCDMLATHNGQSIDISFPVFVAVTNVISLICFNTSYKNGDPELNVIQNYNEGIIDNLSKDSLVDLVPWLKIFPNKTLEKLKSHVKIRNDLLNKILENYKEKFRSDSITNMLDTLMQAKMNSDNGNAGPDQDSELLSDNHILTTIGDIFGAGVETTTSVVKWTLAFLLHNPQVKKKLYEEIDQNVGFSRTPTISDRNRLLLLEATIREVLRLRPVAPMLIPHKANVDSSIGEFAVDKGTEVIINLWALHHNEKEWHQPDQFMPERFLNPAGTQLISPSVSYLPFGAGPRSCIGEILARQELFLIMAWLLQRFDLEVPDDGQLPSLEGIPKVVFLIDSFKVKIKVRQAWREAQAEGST
Method: (§1) The conversion of radiolabeled pregnenolone to 17α-hydroxypregnenolone and DHEA by 17α-hydroxylase/C17,20 -lyase was measured by incubating human testicular microsomes with different concentration of test compounds. Reverse phase HPLC was used to separate and accurately quantify the amount of substrate and metabolites. The 17α-hydroxylase and C17,20 -lyase activities were calculated separately. The activity of 17α-hydroxylase was calculated from the conversion of pregnenolone to 17α-hydroxypregnenolone and DHEA and the activity of C17,20 -lyase was based on the conversion of pregnenolone to DHEA. Although 17α-hydroxypregnenolone is the substrate converted to DHEA by C17,20 -lyase, it has been reported that this 17α-hydroxy intermediate is not released from the enzyme binding site during conversion (Nakajin et al., 1981a,b). Also, there are species differences in substrate requirements. Pregnenolone is the natural substrate rather than progesterone for human testicular 17α-hydroxylase and C17,20 -lyase. Therefore, pregnenolone was used as substrate for measuring the activity of this enzyme complex.

[2] = target: T2, Human Testicular C17,20-lyase (Homo sapiens, UniProt P05093); test: Inhibition of human testicular C17,20-lyase (pregnenolone substrate, testicular microsomes); type: biochemical
T2 construct: incubating human testicular microsomes; from tissue; host or cells: human testis, microsomes
T2 sequence (P05093 1-508): T1 sequence (P05093 1-508)
Method: as §1

[3] = target: T3, human 17α-hydroxylase/C17,20-lyase (Homo sapiens, UniProt P05093); test: Inhibition of human testicular 17α-hydroxylase/C17,20-lyase (enzyme complex as a whole); type: biochemical; conditions: for inhibition of 17α-hydroxylase/C17,20-lyase (in words): NI = no inhibition
T3 construct: incubating human testicular microsomes; from tissue; host or cells: human testis, microsomes
T3 sequence (P05093 1-508): T1 sequence (P05093 1-508)
Method: as §1

[4] = tested on: adrenal 17α-hydroxylase/C17,20-lyase; test: Inhibition of adrenal 17α-hydroxylase/C17,20-lyase; type: biochemical; conditions: guinea pig adrenal
[5] = tested on: LNCaP human prostatic cancer cell line; test: Androgen-dependent growth of LNCaP cells; conditions: for reversal of testosterone-stimulated LNCaP growth (in words): inhibitor 0.3-5 μM, 9 days; for stimulation of LNCaP cell proliferation (in words): hydroxyflutamide 0.3-1 μM
Method: The ability of various inhibitors to reverse the stimulatory effect of testosterone on the growth of the LNCaP human prostatic cancer cell line was tested by comparing cell number in wells treated for 9 days with either drug vehicle only (control), 0.1 nM testosterone only, or 0.1 nM testosterone with inhibitor at 0.3, 1, 2.5, or 5 μM.

[6] = tested on: human prostatic tissue (BPH or prostate cancer); test: Prostate tissue in histoculture, DNA synthesis ([3H]-thymidine uptake); conditions: for reversal of testosterone-stimulated DNA synthesis (in words), 1 μM: inhibitor 1 μM, testosterone 1 μM, FIG. 1; for inhibition of testosterone-stimulated DNA synthesis (in words), 0.3 μM: inhibitor 0.3 μM
Method: We recently developed a histoculture method to evaluate the growth inhibiting properties of the compounds on human prostatic tissue. […] The tissue samples were then incubated for 3 days in fresh medium/treatment containing 2 μCi/ml [^3 H]-thymidine. Tissue was then digested and DNA extracted. For each sample, [^3 H]-thymidine uptake was normalized to DNA content. […] This finding is consistent with the compound acting as an antiandrogen. None of the compounds produced an independent effect on DNA synthesis in the absence of added androgens.

[7] = tested on: LNCaP human prostatic tumors; test: Human prostatic cancer (LNCaP) xenograft in male nude mice; type: in vivo, human (LNCaP) tumors in BALB/c male athymic mice; conditions: five weeks
Method: We have reported that inoculation of MCF-7 breast cancer cells in Matrigel increases mammary tumor formation in nude mice (Yue et al., 1994). The same procedure was therefore utilized to develop tumors from human prostatic cancer cells (LNCAP) in male nude mice. BALB/c male athymic mice, 4-6 weeks old, were inoculated sc with LNCaP cells suspended in Matrigel (10 mg/ml). Four sites per mouse were injected with 1.8×10^6 cells in 0.1 ml Matrigel. Treatment began when the tumor reached about 100 mm^3 in volume. Tumors were measured before the treatment began and once a week during treatment. Tumor volume was calculated by the formula 4/3πr1^2 r2 (r1 <r2).At the end of treatment, the mice were sacrificed and individual tumors were weighed. The latency of tumor development was 30-40 days and overall tumorigenicity was 82%.
In a further experiment, two mice were treated with I-16 (1 mg/mouse/day, s.c.) beginning 45 days after cell inoculation. Two mice received vehicle as controls. […] The mean tumor weight was 198.78±72 mg in I-16 treated mice compared to 386.3±147.2 mg in the control group. In other experiments, I-47 and I-49 were effective in controlling tumor growth. The total tumor volume of the control mice increased to 884.0% of the initial volume.

[8] = target: T4, Human Prostatic 5α-Reductase (Homo sapiens, UniProt P31213); test: Inhibition of human prostatic 5α-reductase (prostatic microsomes, [3H]testosterone); conditions: for inhibition at 0.1 µM: read-out: % Inhibition of 5α-reductase, [I] 100 nM; for inhibition at 0.01 µM: read-out: % Inhibition of 5α-reductase, [I] 10 nM
T4 sequence (P31213 1-254): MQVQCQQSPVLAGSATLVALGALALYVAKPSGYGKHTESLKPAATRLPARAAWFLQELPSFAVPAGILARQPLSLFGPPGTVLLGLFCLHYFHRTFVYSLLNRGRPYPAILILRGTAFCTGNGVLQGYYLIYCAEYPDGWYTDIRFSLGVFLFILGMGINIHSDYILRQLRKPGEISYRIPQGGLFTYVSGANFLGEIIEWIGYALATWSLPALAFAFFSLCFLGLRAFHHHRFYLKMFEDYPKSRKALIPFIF

[9] = target: 17α-hydroxylase/C17,20-lyase; conditions: read-out: Ki (literature); cited from earlier work
[10] = Table 1, NI = no inhibition, read-out: IC50 17α-OHase
[11] = Table 3, first figure of 17α-hydroxylase/lyase pair, read-out: IC50 17α-hydroxylase
[12] = first figure of pair, read-out: IC50 17α-hydroxylase
[13] = Table 1, NI = no inhibition, CI = complete inhibition, read-out: IC50 C17,20 lyase
[14] = second figure of pair, read-out: IC50 C17,20-lyase

Row | SMILES | IC50 [1, 10] [nM] | IC50 [2, 13] [nM] | inhibition of 17α-hydroxylase/C17,20-lyase (in words) [3] | reversal of DHT-stimulated LNCaP growth (in words) ([5]; 0.03 nM DHT) | reversal of testosterone-stimulated DNA synthesis (in words), 1 μM [6] | inhibition at 0.1 µM [8] [%] | inhibition of testosterone-stimulated DNA synthesis (in words), 0.3 μM [6] | IC50 ([8]; IC50 5α-reductase) [nM] | IC50 ([8]; IC50 5α-reductase, Table 2) [nM] | inhibition at 0.01 µM [8] [%] | also measured
1 | C[C@]12CC[C@H](O)CC1=CC[C@@H]1[C@@H]2CC[C@]2(C)C(c3c[nH]cn3)=CC[C@@H]12 [Compound I-49, 17β-(4'-imidazolyl)-androsta-5,16-dien-3β-ol] | 8 | 9 | potent inhibitors | dose-dependent reversal | partially effective | 26.3 |  |  |  |  | IC50 [1, 11]: 8.82 nM; IC50 [1, 12]: 4 nM; IC50 [2, 14]: 4 nM; fold increase of inhibition by 16,17 double bond ([3]; vs I-47): 2 fold; times more potent than ketoconazole ([3]; vs ketoconazole): 10-50 times; effect on adrenal enzyme (in words) [4]: very little effect; reversal of DHT-stimulated LNCaP growth at 5 μM (in words) ([5]; 0.03 nM DHT, inhibitor 5 μM): nearly complete reversal; reversal of testosterone-stimulated LNCaP growth (in words) ([5]; 0.1 nM testosterone): dose-dependent reversal; total tumor volume (% of initial volume), 5 weeks ([7]; 4 mice per group, control 884.0%, FIG. 2): 315.3%; mean tumor weight, 5-week experiment ([7]; control 1310.5±1125.9 mg, I-49 p<0.05 vs control): 255.9 ± 176.9 mg
2 | C[C@@H](O)[C@H]1CC[C@H]2[C@@H]3CCC4=CC(=O)CC[C@]4(C)[C@H]3CC[C@]12C [Compound I-34] |  |  | potent inhibition | stimulation of growth above the level produced by DHT | almost complete reversal | 64.5 | partially effective | 90 | 90 | 16.1 | stimulation of LNCaP cell proliferation (in words) ([5]; 0.1 nM testosterone): stimulated cell proliferation
3 | C[C@]12CC[C@H]3[C@@H](CCC4=CC(=O)CC[C@@]43C)[C@@H]1CC[C@@H]2O [Testosterone, reference compound] |  |  |  |  |  |  |  |  |  |  | fold induction at 0.0001 µM ([5]; Homo sapiens, LNCaP, 216 h, read-out: stimulation of LNCaP growth by testosterone): 2; fold induction at 1 µM ([6]; Homo sapiens, read-out: stimulation of DNA synthesis by testosterone): ~2
4 | CC(=NO)[C@H]1CC[C@H]2[C@@H]3CCC4=CC(=NO)CC[C@]4(C)[C@H]3CC[C@]12C [Compound I-43] | 90 | 70 | decreased activity |  | without effect |  |  |  |  |  | inhibition of 5α-reductase (in words) ([8]; NI = no inhibition): decreased activity; IC50 ([8]; read-out: IC50 5α-reductase, Table 2): 1270 nM
5 | C[C@]12CC[C@H]3[C@@H](CCC4=CC(=O)CC[C@@]43C)[C@@H]1CC[C@@H]2c1c[nH]cn1 [Compound I-41, 17β-(4'-imidazolyl)-androst-4-en-3-one] | 59 | 5 |  |  | without effect |  |  | 122 |  |  | IC50 [1, 11]: 59.4 nM; IC50 [1, 12]: 59 nM; IC50 ([2]; Table 3, second figure of pair, CI = complete inhibition, read-out: IC50 lyase): 5.61 nM; IC50 [2, 14]: 5 nM; IC50 ([8]; IC50 5α-reductase, Table 3, NI = no inhibition): 122 nM
6 | C[C@]12CC[C@H]3[C@@H](CC=C4C[C@@H](O)CC[C@@]43C)[C@@H]1CC[C@@H]2NC1CC1 [17β-(cyclopropylamino)androst-5ene-3-ol] |  |  |  |  |  |  |  |  |  |  | Ki [9]: 90 nM
7 | C[C@H](O)[C@H]1CC[C@H]2[C@@H]3CCC4=CC(=O)CC[C@]4(C)[C@H]3CC[C@]12C [Compound I-33] |  |  |  |  | almost complete reversal | 87.6 | highly effective | 13 | 13 | 28.5 | IC50 ([1]; IC50 17α-OHase): 2840 nM; IC50 ([2]; IC50 C17,20 lyase): 1430 nM; stimulation of LNCaP cell proliferation (in words) ([5]; 0.1 nM testosterone): stimulated cell proliferation
8 | CCN(CC)C(=O)[C@H]1CC[C@H]2[C@@H]3CC[C@H]4N(C)C(=O)CC[C@]4(C)[C@H]3CC[C@]12C [Compound 4MA, reference compound] |  |  |  | dose-dependent reversal | almost complete reversal | 92 | highly effective |  | 10 | 71.9 | reversal of testosterone-stimulated LNCaP growth at 5 μM (in words) ([5]; 0.1 nM testosterone, inhibitor 5 μM): almost completely reversed; reversal of testosterone-stimulated LNCaP growth (in words) ([5]; 0.1 nM testosterone): dose-dependent reversal; IC50 ([5]; Homo sapiens, LNCaP, 216 h, read-out: concentration reducing the stimulatory effect of testosterone by 50%): ≤ 1000 nM
